Tests used:
[1] = test system: Dizocilpine-induced learning impairments in mice; test: Step-through passive avoidance, Dizocilpine-induced learning impairments; type: in vivo
Source text: The apparatus is a two-compartments (15 × 20 × 15 cm high) box with one illuminated with white polyvinylchloride walls and the other darkened with black polyvinylchloride walls and a grid floor. A guillotine door separates each compartment. A 60 W lamp positioned 40 cm above the apparatus lights up the white compartment during the experiment. Scrambled foot shocks (0.3 mA for 3 s) could be delivered to the grid floor using a shock generator scrambler (Lafayette Instruments, Lafayette, USA). The guillotine door was initially closed during the training session. Each mouse was placed into the white compartment. After 5 s, the door was raised. When the mouse entered the darkened compartment and placed all its paws on the grid floor, the door is closed and the foot shocks delivered for 3 s. The step-through latency (STL-Tg), that is, the latency spent to enter the darkened compartment, and the number of vocalizations were recorded. The retention test was carried out 24 h after training. Each mouse was placed again into the white compartment. After 5 s, the door was raised. The step-through latency (STL-R) was recorded up to 300 s (Meunier et al., 2006, 2013; Villard et al., 2009, 2011). An exclusion criteria was STL-Tg and STL-R < 10 s. Animals showing these readouts are excluded from the calculations. Attrition is routinely < 5% in this test.

[2] = test system: Dizocilpine-induced learning impairments in mice; test: Spontaneous alternation in the Y-maze, Dizocilpine-induced learning impairments; type: in vivo; settings: at the highest dose tested (range 0.1-3 mg/kg IP)
Protocol: The Y-maze is made of grey polyvinylchloride. Each arm is 40 cm long, 13 cm high, 3 cm wide at the bottom, 10 cm wide at the top, and converging at an equal angle. Each mouse was placed at the end of one arm and allowed to move freely through the maze during an 8 min session. The series of arm entries, including possible returns into the same arm, were checked visually. An alternation is defined as entries into all three arms on consecutive occasions. The number of maximum alternations is therefore the total number of arm entries minus two and the percentage of alternation was calculated as (actual alternations / maximum alternations) × 100 (Maurice et al., 1996; Meunier et al., 2006, 2013). Exclusion criteria are locomotion < 10 or percentage of alternation < 25% or > 90%. Animals showing these readouts are excluded from the calculations. Attrition is routinely < 5% in this test.
Due to the chaperone nature of SIG-1R, a SIG-1R positive modulator behaves as an agonist in vivo, particularly on learning and memory abilities in mice (Maurice et al., 2019; Vavers et al., 2019). Convolamine was tested on Dizocilpine-induced learning impairments, a well-characterized SIG-1R-mediated response in mice (Maurice et al., 1994, 2001). The NMDA receptor noncompetitive antagonist Dizocilpine (0.15 mg/kg IP) prevented spontaneous alternation behavior (Fig. 4A) and increased mobility (Fig. 4B) in the Y-maze. […] Co-treatment with the SIG-1R antagonist NE-100 at 1 mg/kg IP, blocked the attenuating effect of Convolamine (Fig. 4C), thus confirming the SIG-1R-mediated effect.

[3] = test system: wfs1ab^KO zebrafish larvae; test: Visual motor response in zebrafish larvae (hyperlocomotor response); type: in vivo; settings: at 3 µM in fish water
Protocol: The visual motor response assay quantifies the locomotor activity of the zebrafish larvae to light intensity changes. The protocol was previously described (Crouzier et al., 2021a, 2021b, 2022). In brief, 5 dpf larvae were transfered in a 96-well plate (#7701-1651, Whatman) with 300 µl of fish water and placed in a Zebrabox® (ViewPoint, Lissieu, France). The locomotor behavior was monitored using an automated videotracking device equipped with an infra-red (IR) camera under IR light illumination (Zebralab®, Viewpoint). The light protocol was as follow: 30 min of acclimatization in the dark (0% light intensity), then 2 cycles of 10-min duration light ON and 10-min duration light OFF periods. The brightness changes were immediate (<< 1 s). The activity was measured in mm/s. For each larva, the mobility were calculated as mean (OFF-ON) values to account for inter- and intra-group variability in locomotor response.
A phenotypic test described by Crouzier et al. (2022) was performed. […] Compounds were added in the fish water of larvae at 4 dpf for 24 h, and screening parameters included: (1) the lack of toxicity (including grossly observable morphological alterations) after 24 h exposure; (2) the locomotor increase in wfs1ab^KO larvae, expressed as % of V-treated wfs1ab^KO response; (3) the eventual alteration of locomotion in wfs1ab^WT larvae, expressed as % of V-treated wfs1ab^WT response; and (4) the Protection index (PI) calculated as detailed in the Methods section.

SIG-1R/BiP = target: T1, SIG-1R/BiP (Homo sapiens, UniProt Q99720); test: SIG-1R/BiP dissociation assay in GFP-SIG-1R-overexpressing CHO cells; type: cell-based; settings: compound alone, at concentrations up to 30 µM
T1 construct: host or cells: CHO cells overexpressing GFP-SIG-1R
T1 sequence (Q99720 whole entry): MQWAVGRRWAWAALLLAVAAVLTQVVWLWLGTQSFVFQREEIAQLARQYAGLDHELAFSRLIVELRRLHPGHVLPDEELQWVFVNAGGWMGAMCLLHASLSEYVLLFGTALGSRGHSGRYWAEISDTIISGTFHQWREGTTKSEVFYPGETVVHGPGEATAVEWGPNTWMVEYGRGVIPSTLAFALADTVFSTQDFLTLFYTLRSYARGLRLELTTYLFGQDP
Protocol: CHO cells which overexpress GFP tagged-SIG-1R (gift from Tsung-Ping Su, NIDA/NIH, Baltimore, MD, USA) were maintained in DMEM/Glutamax culture medium supplemented with 10% heat inactivated FBS. GFP-SIG-1Roe CHO cells were plated in 6-well plates and treated with test compounds dissolved in culture medium for 30 min at 37°C. The reaction was terminated by removing the culture medium containing the test drug and replacing it with 1 ml of PBS. GFP-SIG-1R-oe CHO cells were harvested and suspended in PBS (pH 7.4) followed by cross-linking with 50 µg/ml of dithiobis succinimidyl propionate (ThermoFisher, France). The reaction was stopped by adding Tris/HCl 50 mM (pH 8.8). After a 15 min incubation on ice, cells were lysed with 50 mM Tris (pH 7.4), 150 mM NaCl, 1% Triton X/100, 0.3% sodium deoxycholate, 0.1% SDS buffer containing a protease inhibitor cocktail (Sigma-Aldrich, France). After centrifugation at 16,000 g for 1 min, the supernatant was incubated with Chromotek GFP-trap agarose (Proteintech, United Kingdom) overnight at 4°C.

COc1ccc(C(=O)OC2CC3CCC(C2)N3)cc1OC (stereo not drawn) [Convolvine, reference compound]
Dizocilpine-induced decrease in step-through latency (in words) ([1]; at 0.3 mg/kg IP): attenuated, but in a non-significant manner
Dizocilpine-induced increase in escape latency (in words) ([1]; at the highest doses tested (range 0.1-3 mg/kg IP)): attenuated, but in a non-significant manner
Dizocilpine-induced alternation deficit (in words) [2]: significantly attenuated
hyperlocomotor response of wfs1ab^KO zebrafish (in words) [3]: failed to attenuate

CCCN(CCC)CCc1ccc(OC)c(OCCc2ccccc2)c1 [NE-100, reference compound]
dissociation of SIG-1R from BiP (in words) (SIG-1R/BiP): ineffective
hyperlocomotor response of wfs1ab^KO zebrafish (in words) [3]: failed to affect

— patent EP4523686A1, “A SIGMA-1 RECEPTOR POSITIVE MODULATOR FOR ITS USE IN THE PREVENTION AND THE TREATMENT OF A PATHOLOGY” (priority 2023, dated 2025)
